Laboratory results from PMC7393058, “Design, Synthesis, Molecular Modeling Study and Biological Evaluation of New N'-Arylidene-pyrido [2,3-d]pyrimidine-5-carbohydrazide Derivatives as Anti-HIV-1 Agents” (Iranian Journal of Pharmaceutical Research : IJPR, 2019).
Read-outs that look alike come from different tables or passages of the source.

How the values were obtained:
[1] = tested on: single cycle replicable HIV NL4-3; assay: single-round replication assay, inhibition of p24 expression (capture ELISA) in Hela cells; format: cell-based, HIV-1; conditions: for SI=CC50/EC50: selectivity index, CC50/EC50 ratio
Experimental: (§1) The evaluation of inhibitory effect of synthesized compounds was performed by single-round replication assay which was evaluated in our laboratory and reported previously ([34]-[40]). Briefly, Hela cells (6 × 10^3 per well of 96-wells plate) were incubated with single cycle replicable HIV NL4-3 virions (200 ng p24) in the presence of various concentrations of compounds which were added concurrently with viral infection. The supernatants were collected 72 h postinfection and evaluated for p24 antigen load by capture ELISA (Biomerieux, France). Percentage inhibition of p24 expression in the treated culture was calculated as inhibition rate of p24 (%). The 50% effective concentration (EC50) was determined for each compound. XTT proliferation method was performed to evaluate the cellular toxicity of compounds. Toxicities of the compounds against the cells were quantified using XTT (sodium 3-[1 (phenyl aminocarbonyl)-3,4-tetrazolium]-bis(4-methoxy-6-nitro)benzene sulfonic acid) reagent, according to the kit instruction (Roche, Germany) ([41], [42]). Concentration which reduces proliferation of 50% of cells (CC50) was calculated subsequent to determination of p24 load. For EC50 and CC50 determinations, the compounds were tested at six concentrations ([…]) in triplicates.
(§2) All new synthesized compounds were evaluated for their activity against single cycle replicable HIV NL4-3 by determining their ability to inhibit p24 expression in Hela cell cultures. The well-known nucleoside RT inhibitor (AZT) was assayed in the same cells for comparative purpose. They all were then subjected to cell based XTT colorimetric assay for cytotoxicity to ensure that the anti-HIV-1 activity of the compounds was not a result of their cytotoxic effects ([43], [44]). The biological results are expressed as EC50, CC50, and SI (selectivity index, given by the CC50/EC50 ratio). […] When comparing the anti-HIV-1 activity of tested compounds, it appeared that the presence of substituents on benzylidene fragment confers better inhibition than the unsubstituted counterparts (compound 5a, EC50 >[…]).

[2] = XTT proliferation (cytotoxicity) assay; format: cell-based, human; conditions: human; XTT, Hela cells
Experimental: as §1, §2

Hela cells = assay: XTT proliferation (cytotoxicity) assay; format: cell-based, human
Experimental: as §1, §2

[3] = Human immunodeficiency virus 1, NL43, HeLa, 72 h

Row | SMILES | melting point | EC50 [1, 3] | SI=CC50/EC50 [1] | CC50 at 72 h [2] | EC50 ([1]; inhibition of p24 expression, Hela cells, 72 h postinfection, triplicates, read-out: EC50) | CC50 (Hela cells)
1 | Cn1c(=O)c2c(C(=O)NN=Cc3ccc(F)cc3)cc(=O)[nH]c2n(C)c1=O | 220.7 to 221.3 °C |  |  |  |  | 
2 | Cn1c(=O)c2c(C(=O)NN=Cc3ccccc3Cl)cc(=O)[nH]c2n(C)c1=O [Compound 5e, N’-(2-chlorobenzylidene)-1,3-dimethyl-2,4,7-trioxo-1,2,3,4,7,8-hexahydropyrido[2,3-d]pyrimidine-5-carbohydrazide] | 297 °C (dec.) | 155 µM | 2.4 | > 200 µM |  | 
3 | Cn1c(=O)c2c(C(=O)NN=Cc3ccccc3)cc(=O)[nH]c2n(C)c1=O [Compound 5a, N’-benzylidene-1,3-dimethyl-2,4,7-trioxo-1,2,3,4,7,8-hexahydropyrido[2,3-d]pyrimidine-5-carbohydrazide] | 286 °C (dec.) | > 200 µM | 1.2 | > 200 µM |  | 
4 | COc1ccc(C=NNC(=O)c2cc(=O)[nH]c3c2c(=O)n(C)c(=O)n3C)cc1 [Compound 5d, N’-(4-methoxybenzylidene)-1,3-dimethyl-2,4,7-trioxo-1,2,3,4,7,8-hexahydropyrido[2,3-d]pyrimidine-5-carbohydrazide] | 231 °C (dec.) | 140 µM | 1.3 | 185 µM |  | 
5 | COc1cccc(C=NNC(=O)c2cc(=O)[nH]c3c2c(=O)n(C)c(=O)n3C)c1 [Compound 5c, N’-(3-methoxybenzylidene)-1,3-dimethyl-2,4,7-trioxo-1,2,3,4,7,8-hexahydropyrido[2,3-d]pyrimidine-5-carbohydrazide] | 231 °C (dec.) | 180 µM | 1.1 | > 200 µM |  | 
6 | Cn1c(=O)c2c(C(=O)NN=Cc3cccc(F)c3)cc(=O)[nH]c2n(C)c1=O [Compound 5k, N’-(3-fluorobenzylidene)-1,3-dimethyl-2,4,7-trioxo-1,2,3,4,7,8-hexahydropyrido[2,3-d]pyrimidine-5-carbohydrazide] | 287 °C (dec.) | 140 µM | 2.7 | > 200 µM |  | 
7 | COc1ccccc1C=NNC(=O)c1cc(=O)[nH]c2c1c(=O)n(C)c(=O)n2C [Compound 5b, N’-(2-methoxybenzylidene)-1,3-dimethyl-2,4,7-trioxo-1,2,3,4,7,8-hexahydropyrido[2,3-d]pyrimidine-5-carbohydrazide] | 231 °C (dec.) | 120 µM | 3.75 | > 200 µM |  | 
8 | Cc1ccccc1C=NNC(=O)c1cc(=O)[nH]c2c1c(=O)n(C)c(=O)n2C | 277 °C (dec.) |  |  |  |  | 
9 | Cc1cn([C@H]2C[C@H](N=[N+]=[N-])[C@@H](CO)O2)c(=O)[nH]c1=O [AZT, reference compound] |  |  |  |  | 0.018 µM | > 200 µM
10 | Cn1c(=O)c2c(C(=O)NN=Cc3ccc(Cl)cc3)cc(=O)[nH]c2n(C)c1=O [Compound 5g, N’-(4-chlorobenzylidene)-1,3-dimethyl-2,4,7-trioxo-1,2,3,4,7,8-hexahydropyrido[2,3-d]pyrimidine-5-carbohydrazide] | 305 °C (dec.) | 110 µM | 4.5 | > 200 µM |  | 
11 | Cn1c(=O)c2c(C(=O)NN=Cc3cccc(Cl)c3)cc(=O)[nH]c2n(C)c1=O [Compound 5f, N’-(3-chlorobenzylidene)-1,3-dimethyl-2,4,7-trioxo-1,2,3,4,7,8-hexahydropyrido[2,3-d]pyrimidine-5-carbohydrazide] | 302 °C (dec.) | 120 µM | 3.75 | > 200 µM |  | 
12 | Cc1ccc(C=NNC(=O)c2cc(=O)[nH]c3c2c(=O)n(C)c(=O)n3C)cc1 [Compound 5j, 1,3-Dimethyl-N’-(4-methylbenzylidene)-2,4,7-trioxo-1,2,3,4,7,8-hexahydropyrido[2,3-d]pyrimidine-5-carbohydrazide] | 284 °C (dec.) | 90 µM |  | > 200 µM |  | 
13 | Cc1cccc(C=NNC(=O)c2cc(=O)[nH]c3c2c(=O)n(C)c(=O)n3C)c1 [Compound 5i, 1,3-Dimethyl-N’-(3-methylbenzylidene)-2,4,7-trioxo-1,2,3,4,7,8-hexahydropyrido[2,3-d]pyrimidine-5-carbohydrazide] | 280 °C (dec.) | 125 µM | 4.8 | > 200 µM |  | 
